Laboratory results from patent publication US20170349879A1, “METHOD FOR CULTURING NORMAL CELLS AND ODONTOMA CELLS CONTAINED IN ORAL TISSUE” (CHIBA UNIVERSITY, priority 2014, published 2017).

Experiments:
[1] = test system: B6C3F1/Crlj mice; assay: Toxicity in mice administered intraperitoneally with a Rock inhibitor; format: in vivo; settings: 10 mg/kg/day intraperitoneal, once a day for 14 days
Protocol: 4.3 Histopathological Analysis of Organ Toxicity in Mice Administered Intraperitoneally with a Rock Inhibitor Animal used: B6C3F1/Crlj mice (CLEA Japan, Inc., Japan) n=12 for each group (male: 6, female: 6), n=4 for the control group (male: 2, female: 2) Drug: Y-27632 Dose: 10 mg/kg/day (0.25 mg/day for 25 g body weight) Y-27632 was dissolved in PBS and intraperitoneally administered. The control group was administered with an equal volume of PBS. Administration period: administered once a day for successive 14 days. Half of the mice in each group were monitored for follow-up purposes for 14 days after administration. (i) Groups receiving a Rock inhibitor (RI+): n=12 (male: 6, female: 6) A. Group subjected to blood collection and autopsy at the time of the completion of administration (at 14 days after the initiation of administration). n=6 (male: 3, female: 3) B. Group subjected to blood collection and autopsy at the time of the completion of administration (at 28 days after the initiation of administration). n=6 (male: 3, female: 3) The mice were visually observed for their general condition once a day. The mice were measured daily for their body weight and feed/water intake. Hematological tests were performed on each mouse before administration and after administration (on the 14th day). * In each group, 3 male and 3 female mice were subjected to blood collection and autopsy on the 14th day of administration. […] These mice were subjected to blood examination and autopsy on the 28th day after the initiation of administration. Blood counting: red blood cell count, white blood cell count, platelet count, hematocrit value, red blood cell fraction. Biochemical parameters: TP, ALB, CRE, Na, K, GOT, GPT, T-CHO, Glu On the […], 3 male and 3 female mice from each group were subjected to autopsy. The remaining 3 male and 3 female mice were subjected to autopsy on the 28th day after being monitored for follow-up purposes. […]

[2] = test system: amylase; assay: Protein expression analysis of amylase by immunocytological fluorescent staining; format: cell-based, human; settings: salivary gland cells repeatedly subcultured in Rock inhibitor-containing medium; FIG. 3
Protocol: (i) Salivary gland cells cultured on glass slides were fixed by being treated for 10 minutes with 4% paraformaldehyde (WaKo). (ii) The fixed cells were washed three times with Tris-buffered saline (TBS: Sigma-Aldrich). (iii) The fixed cells were permeated with 0.5% Triton X-100 (WaKo) for 15 minutes. (iv) The fixed cells were reacted for 30 minutes with TBS containing 1% bovine serum albumin (Sigma-Aldrich). (v) The fixed cells were washed three times with TBS. (vi) A primary antibody (anti-goat amylase (Santa Cruz)) was mixed with TBS and reacted at a concentration of 1:200 at 4° C. for 16 hours. (vii) The cells were washed three times with TBS. (viii) Anti-goat Alexa Floor 647 (Millipore) was mixed with phosphate-buffered physiological saline and reacted at a concentration of 1:200 at room temperature for 1 hour. (ix) The cells were washed three times with TBS. (x) The cells were mounted with DAPI-containing mounting medium (DaKo). (xi) The cells were observed under a confocal microscope (FV10i-LIV: OLYMPUS).

[3] = test system: amylase; assay: Expression analysis of amylase by quantitative RT-PCR in salivary gland cells; format: cell-based, human; settings: salivary gland cells repeatedly subcultured in Rock inhibitor-containing medium; relative to GAPDH; FIG. 2
Protocol: Salivary gland cells were cultured in the presence or absence of a Rock inhibitor and provided for quantitative RT-PCR assay with a LightCycler 480 (Roche) to analyze amylase expression in these salivary gland cells. The primers used for amylase are as shown below, and the universal probe used was #18. The primers used for glyceraldehyde-3-phosphate dehydrogenase (GAPDH) serving as an endogenous control are as shown below, and the universal probe used was #60. The PCR reaction was conducted in accordance with standard protocols by using a mixture (final reaction volume: 20 μl) containing 10 μl of Probe master (Roche), 0.2 μl of each probe master and the primers. The reaction conditions were set to initial denaturation at 95° C. for 5 minutes and 50 amplification cycles of denaturation at 95° C. for 10 seconds, annealing at 60° C. for 30 seconds and elongation reaction at 60° C. for 60 seconds. The mRNA level of the desired gene was expressed as a relative value to the expression level of GAPDH used as a control.

[4] = test system: salivary gland cells; assay: Karyotype analysis (Q band technique) of primary cultured salivary gland cells; format: cell-based, human; settings: primary cultured labial gland cells cultured in inhibitor-containing medium; FIG. 5
Protocol: Primary cultured salivary gland cells were cultured in a medium containing a Rock inhibitor and analyzed for the presence or absence of their genetic defect(s) by karyotype analysis. The karyotype analysis test was conducted by Q band technique.

[5] = test system: caspase-3; assay: Western blotting of caspase-3 (apoptosis) in salivary gland cells; format: cell-based, human; settings: salivary gland cells in Rock inhibitor-containing medium; relative to α-tubulin; FIG. 6A
Protocol: Primary cultured salivary gland cells were cultured in a medium containing a Rock inhibitor and analyzed for their proliferation by Western blotting of proliferating cell nuclear antigen (PCNA: Santa Cruz) and for their apoptosis by Western blotting of caspase-3 (CST). For analysis of their immortalization, the expression of telomerase reverse transcriptase (TERT) was analyzed by quantitative RT-PCR assay.
The protein levels of PCNA and caspase-3 were measured by Western blotting. In addition, α-tubulin was used as an endogenous control.
(i) A protein extract was electrophoresed on a 4% to 12% polyacrylamide gel (Invitrogen).
(ii) The proteins were transferred onto a nitrocellulose membrane (Invitrogen).
(iii) The membrane was washed with Tris-buffered saline containing 0.1% Tween-20 (WaKo) (TBST), and then blocked with Blocking One (Nacalai Tesque, Inc., Japan) for 30 minutes. […]
(vi) The membrane was reacted at room temperature for 1 hour with horseradish peroxidase (HRP)-conjugated secondary antibody (Promega) and then treated with Super Signal West Pico Chemiluminescent substrate (Thermo) to develop signals for visualization purposes. The intensity of signals was quantified with a CS analyzer (ATTO) and expressed as a relative value in comparison with the protein level of α-tubulin measured as a control.

[6] = test system: salivary gland cells; assay: Analysis of cytomorphological changes by immunocytological fluorescent staining of the cytoskeleton (F-actin); format: cell-based, human; settings: salivary gland cells in Rock inhibitor-containing medium vs inhibitor-free medium; FIG. 4
Protocol: In this section, cytomorphological changes caused by the presence or absence of a Rock inhibitor were analyzed by immunocytological fluorescent staining of the cytoskeleton. Analytes were treated by the same experimental procedures as shown in (2.2) above. As an antibody, Acti-stain 670 fluorescent Phallodin (F-actin) (Cytoskeleton) was reacted at room temperature for 1 hour.

protein expression of amylase [2]: significantly high
chromosomal/genetic defect(s) in karyotype analysis [4]: No genetic defect was observed
Structure (SMILES): CC(N)[C@H]1CC[C@H](C(=O)Nc2ccncc2)CC1 (stereo partly drawn) [Rock inhibitor, (R)-(+)-trans-N-(4-pyridyl)-4-(1-aminoethyl)-cyclohexanecarboxamide]
hematological tests ([1]; FIG. 7): No abnormal findings were observed
time course of body weight changes ([1]; FIG. 8): No abnormal findings were observed
histopathological examination of organs ([1]; HE staining, FIG. 9): No abnormal findings were observed
mRNA expression of amylase [3]: significantly high
caspase-3 expression [5]: no difference was observed
cytoskeleton (F-actin) morphology [6]: honeycomb-like skeleton
